For one test, the target named is T1, CFTR (Homo sapiens, UniProt P13569, DEL508-508).
T1 construct: Primary human bronchial epithelial cells from a ΔF508 homozygous CF donor; host or cells: primary human bronchial epithelial cells (CF-HBE), ΔF508 homozygous donor
Briefly: TECC24 AUC fold over DMSO @10 μM, CFTR-mediated transepithelial chloride transport in CF-HBE cells. The test is classed as cell-based. The conditions noted are these: test agent AUC divided by DMSO vehicle AUC, primary CF-HBE cells, ΔF508 homozygous donor, 48 hours incubation. A digest of the protocol:
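ΔF508-homozygous primary bronchial epithelial cells incubated 48 h at 36.5° C with compound (10 μM) in IL-13-containing medium, then TECC24 current-clamp recording in pH 7.4 Hepes saline with benzamil 10 μM, forskolin 10 μM, then CFTR inhibitor-172 20 μM. Equivalent Cl− current AUC between forskolin and inhibitor, expressed as fold over DMSO.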

The next test concerns the target T2, NBD1 (Homo sapiens, UniProt P13569).
T2 construct: Purified recombinant NBD1 was produced using previously described methods; made in house
Briefly: Aggregation analysis using differential static light scattering (DSLS), thermal stability of NBD1 (ΔTagg). Format: binding. The settings on record: ΔTagg versus DMSO control, NBD1 0.2 mg/ml. Put shortly:
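Purified recombinant NBD1 at 0.2 mg/ml in 50 mM Tris-HCl, 150 mM NaCl, 5 mM MgCl2, 2 mM ATP, 2 mM DTT, pH 7.6, 1% glycerol, with compound, heated 1° C./min to 70° C. under light-scattering monitoring. Tagg taken at curve inflection; ΔTagg is compound Tagg minus mean DMSO-control Tagg, binned A (≤5° C.), B (>5-≤10° C.), C (>10-≤25° C.).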

Each structure is given as a SMILES string.

T1 sequence (P13569 with tags, fused parts or gaps DEL508-508): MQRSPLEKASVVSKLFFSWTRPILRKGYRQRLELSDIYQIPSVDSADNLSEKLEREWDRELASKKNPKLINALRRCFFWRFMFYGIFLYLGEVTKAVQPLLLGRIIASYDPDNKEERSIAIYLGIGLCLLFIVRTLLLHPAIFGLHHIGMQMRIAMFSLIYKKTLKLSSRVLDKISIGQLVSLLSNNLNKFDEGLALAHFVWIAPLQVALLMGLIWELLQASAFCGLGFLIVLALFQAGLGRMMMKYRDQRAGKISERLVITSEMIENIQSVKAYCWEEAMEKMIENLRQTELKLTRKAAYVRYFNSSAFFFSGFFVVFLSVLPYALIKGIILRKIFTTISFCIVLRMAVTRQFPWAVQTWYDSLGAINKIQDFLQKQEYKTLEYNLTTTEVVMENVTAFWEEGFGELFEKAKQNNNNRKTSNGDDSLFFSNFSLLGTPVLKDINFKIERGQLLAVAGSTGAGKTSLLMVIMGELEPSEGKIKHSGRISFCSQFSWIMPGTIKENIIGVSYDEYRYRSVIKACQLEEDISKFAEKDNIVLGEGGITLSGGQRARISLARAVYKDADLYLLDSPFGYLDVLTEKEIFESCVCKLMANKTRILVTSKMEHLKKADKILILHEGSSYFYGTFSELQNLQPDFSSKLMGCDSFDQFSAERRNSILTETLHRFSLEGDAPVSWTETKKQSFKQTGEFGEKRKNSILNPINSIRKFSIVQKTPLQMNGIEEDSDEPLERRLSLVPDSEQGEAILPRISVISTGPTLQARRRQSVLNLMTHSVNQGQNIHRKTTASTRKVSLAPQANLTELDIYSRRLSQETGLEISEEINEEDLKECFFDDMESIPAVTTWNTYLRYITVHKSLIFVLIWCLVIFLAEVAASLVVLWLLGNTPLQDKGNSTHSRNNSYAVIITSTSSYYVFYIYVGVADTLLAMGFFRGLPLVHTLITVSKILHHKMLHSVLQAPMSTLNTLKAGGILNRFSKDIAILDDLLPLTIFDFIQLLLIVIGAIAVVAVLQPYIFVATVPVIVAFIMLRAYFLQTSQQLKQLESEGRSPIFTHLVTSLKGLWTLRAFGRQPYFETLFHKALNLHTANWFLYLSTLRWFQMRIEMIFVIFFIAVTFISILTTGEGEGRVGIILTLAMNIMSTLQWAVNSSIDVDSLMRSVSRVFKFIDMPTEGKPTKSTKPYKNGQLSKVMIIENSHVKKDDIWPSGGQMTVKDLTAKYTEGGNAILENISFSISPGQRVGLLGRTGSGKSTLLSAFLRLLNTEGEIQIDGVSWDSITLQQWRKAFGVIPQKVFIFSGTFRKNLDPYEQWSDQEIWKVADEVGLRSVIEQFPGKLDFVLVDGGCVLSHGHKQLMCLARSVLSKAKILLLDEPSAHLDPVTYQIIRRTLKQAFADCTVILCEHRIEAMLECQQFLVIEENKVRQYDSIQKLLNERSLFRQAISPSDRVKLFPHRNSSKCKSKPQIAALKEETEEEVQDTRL
T2 sequence (P13569 423-646 limits assumed): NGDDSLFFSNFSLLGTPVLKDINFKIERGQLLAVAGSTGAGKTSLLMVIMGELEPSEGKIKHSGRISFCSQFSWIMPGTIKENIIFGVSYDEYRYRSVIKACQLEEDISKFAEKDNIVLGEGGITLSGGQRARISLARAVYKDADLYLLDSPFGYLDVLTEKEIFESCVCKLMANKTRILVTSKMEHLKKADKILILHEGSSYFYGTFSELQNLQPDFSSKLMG

`Cn1nc2nc1-c1cc(ccn1)Sc1c(F)c(F)c3[nH]ccc3c1CCS(=O)(=O)CC(C)(C)CCC[C@]2(C)c1cccc(CCC(=O)O)c1` [Compound 276, 3-[3-[(6R)-21,22-difluoro-3,6,10,10-tetramethyl-12,12-dioxo-12λ6,24-dithia-3,4,19,28,30-pentazapentacyclo[23.3.1.12,5.015,23.016,20]triaconta-1(29),2(30),4,15,17,20,22,25,27-nonaen-6-yl]phenyl]propanoic Acid]: the “TECC (AUC, 10 μM)” value on CFTR is “B (a value between 12-20 is marked “B”)”. Moreover, the “DSLS 3D (100 μM ΔT)” value on NBD1 was “C (a value greater than 10 °C and less than or equal to 25 °C is marked “C”)”.

In the case of `C[C@@H](Cc1cccc([C@@]2(C)CCCC(C)(C)CS(=O)(=O)CCc3c(c(F)cc4[nH]ccc34)Sc3ccnc(c3)-c3nc2nn3C)c1F)C(=O)O` [Compound 277, (2S)-3-[2-fluoro-3-[(6R)-22-fluoro-3,6,10,10-tetramethyl-12,12-dioxo-12λ6,24-dithia-3,4,19,28,30-pentazapentacyclo[23.3.1.12,5.015,23.016,20]triaconta-1(29),2(30),4,15,17,20,22,25,27-nonaen-6-yl]phenyl]-2-methyl-propanoic acid], the “TECC (AUC, 10 μM)” value on CFTR was “A (a TECC value less than 12 is marked “A”)”. Further, the “DSLS 3D (100 μM ΔT)” value at NBD1 is “C (a value greater than 10 °C and less than or equal to 25 °C is marked “C”)”.

As for `Cn1nc2nc1-c1cc(ccn1)[S+]([O-])c1c(F)cc3[nH]ccc3c1CCS(=O)(=O)CC(C)(C)CCC[C@]2(C)c1cccc(CC(C)(C)C(=O)O)c1` (stereo partly drawn) [Compound 278, 3-[3-[(6R)-22-fluoro-3,6,10,10-tetramethyl-12,12,24-trioxo-12λ6,24λ4-dithia-3,4,19,28,30-pentazapentacyclo[23.3.1.12,5.015,23.016,20]triaconta-1(29),2(30),4,15,17,20,22,25,27-nonaen-6-yl]phenyl]-2,2-dimethyl-propanoic Acid], at CFTR, the “TECC (AUC, 10 μM)” value was “C (a value between 20 and 80 is marked “C”)”. For the same compound, the “DSLS 3D (100 μM ΔT)” value on NBD1 is “C (a value greater than 10 °C and less than or equal to 25 °C is marked “C”)”.

As to `Cn1nc2nc1-c1cc(ccc1F)Sc1c(F)c(F)c3[nH]ccc3c1CCS(=O)(=O)CC(C)(C)CCC[C@]2(C)c1cccc(CC(C)(C)C(=O)O)c1` [Compound 279, 2,2-Dimethyl-3-[3-[(6R)-21,22,28-trifluoro-3,6,10,10-tetramethyl-12,12-dioxo-12λ6,24-dithia-3,4,19,30-tetrazapentacyclo[23.3.1.12,5.015,23.016,20]triaconta-1(29),2(30),4,15,17,20,22,25,27-nonaen-6-yl]phenyl]propanoic Acid], the “TECC (AUC, 10 μM)” value at CFTR is “C (a value between 20 and 80 is marked “C”)”. In addition, at NBD1, the “DSLS 3D (100 μM ΔT)” value is “C (a value greater than 10 °C and less than or equal to 25 °C is marked “C”)”.

Turning to `Cn1nc2nc1-c1cc(ccc1F)[S+]([O-])c1c(F)c(F)c3[nH]ccc3c1CCS(=O)(=O)CC(C)(C)CCC[C@]2(C)c1cccc(CC(C)(C)C(=O)O)c1` (stereo partly drawn) [Compound 280, 2,2-dimethyl-3-[3-[(6R)-21,22,28-trifluoro-3,6,10,10-tetramethyl-12,12,24-trioxo-12λ6,24λ4-dithia-3,4,19,30-tetrazapentacyclo[23.3.1.12,5.015,23.016,20]triaconta-1(29),2(30),4,15,17,20,22,25,27-nonaen-6-yl]phenyl]propanoic Acid], the “TECC (AUC, 10 μM)” value on CFTR was “C (a value between 20 and 80 is marked “C”)”. The “DSLS 3D (100 μM ΔT)” value at NBD1 was “C (a value greater than 10 °C and less than or equal to 25 °C is marked “C”)”.

Regarding `Cn1nc2nc1-c1cc(ccn1)Sc1c(F)c(F)c3[nH]ccc3c1CCS(=O)(=O)CC(C)(C)CCC[C@]2(C)c1cccc(C[C@@H](O)CO)c1` [Compound 282, (2R)-3-[3-[(6R)-21,22-difluoro-3,6,10,10-tetramethyl-12,12-dioxo-12λ6,24-dithia-3,4,19,28,30-pentazapentacyclo[23.3.1.12,5.015,23.016,20]triaconta-1(29),2(30),4,15,17,20,22,25,27-nonaen-6-yl]phenyl]propane-1,2-diol], on CFTR, the “TECC (AUC, 10 μM)” value is “C (a value between 20 and 80 is marked “C”)”. Further, the “DSLS 3D (100 μM ΔT)” value on NBD1 was “C (a value greater than 10 °C and less than or equal to 25 °C is marked “C”)”.

Turning to `C[C@@H](Cc1cccc([C@@]2(C)CCCC(C)(C)CS(=O)(=O)CCc3c(c(F)cc4[nH]ccc34)[S+]([O-])c3ccnc(c3)-c3nc2nn3C)c1F)C(=O)O` (stereo partly drawn) [Compound 283, (2S)-3-[2-fluoro-3-[(6R)-22-fluoro-3,6,10,10-tetramethyl-12,12,24-trioxo-12λ6,24λ4-dithia-3,4,19,28,30-pentazapentacyclo[23.3.1.12,5.015,23.016,20]triaconta-1(29),2(30),4,15,17,20,22,25,27-nonaen-6-yl]phenyl]-2-methyl-propanoic Acid], the “TECC (AUC, 10 μM)” value on CFTR is “C (a value between 20 and 80 is marked “C”)”. In addition, the “DSLS 3D (100 μM ΔT)” value at NBD1 was “C (a value greater than 10 °C and less than or equal to 25 °C is marked “C”)”.

For the compound `Cn1nc2nc1-c1cc(ccc1F)[S+]([O-])c1c(F)cc3[nH]ccc3c1CCS(=O)(=O)CC(C)(C)CCC[C@]2(C)c1cccc(C[C@H](O)CO)c1` (stereo partly drawn) [Compound 286, (2S)-3-[3-[(6R)-22,28-difluoro-3,6,10,10-tetramethyl-12,12,24-trioxo-12λ6,24λ4-dithia-3,4,19,30-tetrazapentacyclo[23.3.1.12,5.015,23.016,20]triaconta-1(29),2(30),4,15,17,20,22,25,27-nonaen-6-yl]phenyl]propane-1,2-diol], the “TECC (AUC, 10 μM)” value on CFTR was “C (a value between 20 and 80 is marked “C”)”. Moreover, the “DSLS 3D (100 μM ΔT)” value at NBD1 is “C (a value greater than 10 °C and less than or equal to 25 °C is marked “C”)”.

With `Cn1nc2nc1-c1cc(ccc1F)Sc1c(F)cc3[nH]ccc3c1CCS(=O)(=O)CC(C)(C)CCC[C@]2(C)c1cccc(C[C@H](O)CO)c1` [Compound 287, (2S)-3-[3-[(6R)-22,28-difluoro-3,6,10,10-tetramethyl-12,12-dioxo-12λ6,24-dithia-3,4,19,30-tetrazapentacyclo[23.3.1.12,5.015,23.016,20]triaconta-1(29),2(30),4,15,17,20,22,25,27-nonaen-6-yl]phenyl]propane-1,2-diol], the “TECC (AUC, 10 μM)” value on CFTR was “C (a value between 20 and 80 is marked “C”)”. The “DSLS 3D (100 μM ΔT)” value on NBD1 is “C (a value greater than 10 °C and less than or equal to 25 °C is marked “C”)”.

For `Cn1nc2nc1-c1cc(ccc1F)Oc1c(F)cc3[nH]ccc3c1CCS(=O)(=O)CC(C)(C)CCC[C@]2(C)c1cccc(CC2(C(=O)O)CC2)c1` [Compound 288, 1-[[3-[(6R)-22,28-difluoro-3,6,10,10-tetramethyl-12,12-dioxo-24-oxa-12λ6-thia-3,4,19,30-tetrazapentacyclo[23.3.1.12,5.015,23.016,20]triaconta-1(29),2(30),4,15,17,20,22,25,27-nonaen-6-yl]phenyl]methyl]cyclopropanecarboxylic Acid], the “TECC (AUC, 10 μM)” value at CFTR is “C (a value between 20 and 80 is marked “C”)”. Further, the “DSLS 3D (100 μM ΔT)” value at NBD1 is “C (a value greater than 10 °C and less than or equal to 25 °C is marked “C”)”.

As to `Cn1nc2nc1-c1cc(ccc1F)Oc1c(F)cc3[nH]ccc3c1CCS(=O)(=O)CC(C)(C)CCC[C@]2(C)c1cccc(CC(C)(C)C(=O)O)c1` [Compound 289, 3-[3-[(6R)-22,28-difluoro-3,6,10,10-tetramethyl-12,12-dioxo-24-oxa-12λ6-thia-3,4,19,30-tetrazapentacyclo[23.3.1.12,5.015,23.016,20]triaconta-1(29),2(30),4,15,17,20,22,25,27-nonaen-6-yl]phenyl]-2,2-dimethyl-propanoic Acid], the “TECC (AUC, 10 μM)” value on CFTR is “C (a value between 20 and 80 is marked “C”)”. The “DSLS 3D (100 μM ΔT)” value at NBD1 was “C (a value greater than 10 °C and less than or equal to 25 °C is marked “C”)”.

`Cn1nc2nc1-c1cc(ccn1)Oc1c(F)cc3[nH]ccc3c1CCS(=O)(=O)CC(C)(C)CCC[C@]2(C)c1cccc(CC2(C(=O)O)CC2)c1` [Compound 290, 1-[[3-[(6R)-22-fluoro-3,6,10,10-tetramethyl-12,12-dioxo-24-oxa-12λ6-thia-3,4,19,28,30-pentazapentacyclo[23.3.1.12,5.015,23.016,20]triaconta-1(29),2(30),4,15,17,20,22,25,27-nonaen-6-yl]phenyl]methyl]cyclopropanecarboxylic Acid]: the “TECC (AUC, 10 μM)” value at CFTR is “C (a value between 20 and 80 is marked “C”)”. Besides, the “DSLS 3D (100 μM ΔT)” value at NBD1 was “C (a value greater than 10 °C and less than or equal to 25 °C is marked “C”)”.

`Cn1nc2nc1-c1cc(ccn1)Oc1c(F)cc3[nH]ccc3c1CCS(=O)(=O)CC(C)(C)CCC[C@]2(C)c1cccc(CC(C)(C)C(=O)O)c1` [Compound 291, 3-[3-[(6R)-22-fluoro-3,6,10,10-tetramethyl-12,12-dioxo-24-oxa-12λ6-thia-3,4,19,28,30-pentazapentacyclo[23.3.1.12,5.015,23.016,20]triaconta-1(29),2(30),4,15,17,20,22,25,27-nonaen-6-yl]phenyl]-2,2-dimethyl-propanoic Acid]: on CFTR, the “TECC (AUC, 10 μM)” value was “C (a value between 20 and 80 is marked “C”)”. On NBD1, the “DSLS 3D (100 μM ΔT)” value was “C (a value greater than 10 °C and less than or equal to 25 °C is marked “C”)”.

(Values after patent US12649750B2, “Macrocyclic compounds, compositions, and methods of using thereof” (Sionna Therapeutics Inc., priority 2022, dated 2026).)
